Measured values from patent publication US20200055817A1 (AbbVie Deutschland GmbH & Co. KG, priority 2016, published 2020).

Experiments:
Assay type in all cases: cell-based
[1] = molecular target: T1, human EDG8 (S1PR5) receptor (Homo sapiens, UniProt Q9H228); assay: Aequorin assay, agonist potency, CHO-A21-EDG8#12 cells; conditions: agonist mode, aequorin luminescence; read-out: S1P5 EC50 range #
T1 construct: carries the transgenes human EDG8 (S1PR5) receptor (Acession number NP_110387.1); expressed in transfected cells; host or cells: CHO-A21-EDG8#12 (CHO clone co-expressing mitochondrial aequorin and chimaeric Gaqi5)
Procedure, shortened: (§1)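 CHO cells coexpressing receptor, mitochondrial aequorin and Gαqi5 (S1P3 pool: GNA16) were loaded overnight at RT with 5 μM coelenterazine h in 0.1% fatty-acid-free BSA buffer. Cells were injected onto compound, luminescence recorded 90 s and integrated, normalised to digitonin or 20 μM ATP; sigmoidal fit.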

[2] = molecular target: T2, human EDG1 (S1PR1) receptor (Homo sapiens, UniProt P21453); assay: Aequorin assay, agonist potency, CHO-A21-Edg1#17 cells; conditions: agonist mode, aequorin luminescence; read-out: S1P1 EC50
T2 construct: expressed in transfected cells; host or cells: CHO-A21-Edg1#17 (CHO clone co-expressing mitochondrial aequorin and chimaeric Gaqi5)
Procedure, shortened: as §1

[3] = molecular target: T3, S1P4 (Homo sapiens, UniProt O95977); assay: Aequorin assay, agonist potency, S1P4; conditions: agonist mode, aequorin luminescence
T3 sequence (O95977 1-384): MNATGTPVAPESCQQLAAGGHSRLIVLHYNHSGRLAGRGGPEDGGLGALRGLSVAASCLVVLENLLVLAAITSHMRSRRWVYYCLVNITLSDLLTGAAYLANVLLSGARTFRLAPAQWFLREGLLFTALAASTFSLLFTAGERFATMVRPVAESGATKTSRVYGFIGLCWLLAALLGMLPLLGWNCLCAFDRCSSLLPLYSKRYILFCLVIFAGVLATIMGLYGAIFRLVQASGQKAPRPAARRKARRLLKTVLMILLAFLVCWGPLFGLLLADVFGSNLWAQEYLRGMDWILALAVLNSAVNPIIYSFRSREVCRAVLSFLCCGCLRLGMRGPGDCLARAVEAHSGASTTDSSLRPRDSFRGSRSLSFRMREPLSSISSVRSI
Procedure, shortened: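 Cells loaded overnight at RT with 5 μM coelenterazine h in DMEM/HAM's F12 with HEPES plus 0.1% fatty acid-free BSA, then injected onto compounds; agonist-induced calcium luminescence recorded for 90 s and integrated. Signal normalised to digitonin (100 μM) or ATP (20 μM) wells, S1P as reference agonist; sigmoidal nonlinear regression.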

T2 sequence (P21453 whole entry): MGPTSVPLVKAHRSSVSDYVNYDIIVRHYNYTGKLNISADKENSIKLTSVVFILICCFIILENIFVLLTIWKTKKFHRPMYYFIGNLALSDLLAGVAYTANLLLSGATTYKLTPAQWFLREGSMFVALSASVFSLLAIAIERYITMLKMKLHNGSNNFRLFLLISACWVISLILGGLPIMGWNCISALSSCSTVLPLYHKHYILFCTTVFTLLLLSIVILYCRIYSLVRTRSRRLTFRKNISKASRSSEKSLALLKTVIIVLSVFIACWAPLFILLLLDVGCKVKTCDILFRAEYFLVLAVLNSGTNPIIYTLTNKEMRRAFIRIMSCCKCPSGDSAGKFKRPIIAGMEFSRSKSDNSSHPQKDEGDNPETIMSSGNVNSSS
T1 sequence (Q9H228 whole entry): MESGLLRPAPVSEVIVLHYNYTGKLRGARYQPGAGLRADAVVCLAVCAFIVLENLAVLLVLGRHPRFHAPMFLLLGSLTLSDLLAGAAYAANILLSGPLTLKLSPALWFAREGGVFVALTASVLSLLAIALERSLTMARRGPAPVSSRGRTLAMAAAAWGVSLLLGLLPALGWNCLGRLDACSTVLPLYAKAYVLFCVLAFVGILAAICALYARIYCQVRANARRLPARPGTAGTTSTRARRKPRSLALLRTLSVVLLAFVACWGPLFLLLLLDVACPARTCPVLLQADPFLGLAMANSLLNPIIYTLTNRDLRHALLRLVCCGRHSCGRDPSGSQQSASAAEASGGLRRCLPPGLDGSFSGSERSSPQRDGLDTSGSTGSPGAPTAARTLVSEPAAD

| Compound | EC50 [1] [nM] | EC50 [2] [nM] | EC50 [3] [nM] |
| --- | --- | --- | --- |
| O=C(O)C1(CN2CC3(Cc4ccc(OC5Cc6ccccc6C5)cc4C3)C2)CC1 [Example 127, 1-((5′-((2,3-dihydro-1H-inden-2-yl)oxy)-1′,3′-dihydrospiro[azetidine-3,2′-inden]-1-yl)methyl)cyclopropanecarboxylic acid] | 1000 to 10000 | > 1000 | < 1000 |
| O=C(O)C1(CN2CC3(Cc4ccc(OCc5ccc(OCC6CC6)cc5)cc4C3)C2)CC1 [Example 128, 1-((5′-((4-(cyclopropylmethoxy)benzyl)oxy)-1′,3′-dihydrospiro[azetidine-3,2′-inden]-1-yl)methyl)cyclopropanecarboxylic acid] | 1000 to 10000 | > 1000 | > 1000 |
| O=C(O)C1(CN2CC3(Cc4ccc(OC5CCc6cccc(Cl)c65)cc4C3)C2)CC1 (stereo not drawn) [Example 129, 1-((5′-((7-chloro-2,3-dihydro-1H-inden-1-yl)oxy)-1′,3′-dihydrospiro[azetidine-3,2′-inden]-1-yl)methyl)cyclopropanecarboxylic acid] | ≤ 10 | > 1000 | < 1000 |
| O=C(O)C1(CN2CC3(Cc4ccc(OC5CCc6ccccc65)cc4C3)C2)CC1 (stereo not drawn) [Example 130, 1-((5′-((2,3-dihydro-1H-inden-1-yl)oxy)-1′,3′-dihydrospiro[azetidine-3,2′-inden]-1-yl)methyl)cyclopropanecarboxylic acid] | 1000 to 10000 | > 1000 | < 1000 |
| O=C(O)C1(CN2CC3(Cc4ccc(OCc5c(F)cccc5C5CC5)cc4C3)C2)CC1 [Example 131, 1-((5′-((2-cyclopropyl-6-fluorobenzyl)oxy)-1′,3′-dihydrospiro[azetidine-3,2′-inden]-1-yl)methyl)cyclopropanecarboxylic acid] | ≤ 10 | > 1000 | < 1000 |
| O=C(O)C1(CN2CC3(Cc4ccc(OCCC5CCCCC5)cc4C3)C2)CC1 [Example 132, 1-((5′-(2-cyclohexylethoxy)-1′,3′-dihydrospiro[azetidine-3,2′-inden]-1-yl)methyl)cyclopropanecarboxylic acid] | 1000 to 10000 | > 1000 | < 1000 |
| Cc1ccccc1CCOc1ccc2c(c1)CC1(C2)CN(CC2(C(=O)O)CC2)C1 [Example 134, 1-((5′-(2-methylphenethoxy)-1′,3′-dihydrospiro[azetidine-3,2′-inden]-1-yl)methyl)cyclopropanecarboxylic acid] | 1000 to 10000 | > 1000 | < 1000 |
| COc1ccc(CCOc2ccc3c(c2)CC2(C3)CN(CC3(C(=O)O)CC3)C2)cc1 [Example 135, 1-((5′-(4-methoxyphenethoxy)-1′,3′-dihydrospiro[azetidine-3,2′-inden]-1-yl)methyl)cyclopropanecarboxylic acid] | 1000 to 10000 | > 1000 | > 1000 |
| O=C(O)C1(CN2CC3(Cc4ccc(OCCc5ccccc5F)cc4C3)C2)CC1 [Example 136, 1-((5′-(2-fluorophenethoxy)-1′,3′-dihydrospiro[azetidine-3,2′-inden]-1-yl)methyl)cyclopropanecarboxylic acid] | 1000 to 10000 | > 1000 | < 1000 |

Second part, the molecule after the results:

| EC50 [1] [nM] | EC50 [2] [nM] | EC50 [3] [nM] | Compound |
| --- | --- | --- | --- |
| 1000 to 10000 | > 1000 | < 1000 | O=C(O)C1(CN2CC3(Cc4ccc(OCCc5ccc(F)cc5)cc4C3)C2)CC1 [Example 137, 1-((5′-(4-fluorophenethoxy)-1′,3′-dihydrospiro[azetidine-3,2′-inden]-1-yl)methyl)cyclopropanecarboxylic acid] |
| 1000 to 10000 | > 1000 | < 1000 | Cc1ccccc1COc1ccc2c(c1)CC1(C2)CN(CC2(C(=O)O)CC2)C1 [Example 138, 1-((5′-((2-methylbenzyl)oxy)-1′,3′-dihydrospiro[azetidine-3,2′-inden]-1-yl)methyl)cyclopropanecarboxylic acid] |
| 1000 to 10000 | > 1000 | > 1000 | COc1ccc(COc2ccc3c(c2)CC2(C3)CN(CC3(C(=O)O)CC3)C2)cc1 [Example 139, 1-((5′-((4-methoxybenzyl)oxy)-1′,3′-dihydrospiro[azetidine-3,2′-inden]-1-yl)methyl)cyclopropanecarboxylic acid] |
| 1000 to 10000 | > 1000 | > 1000 | O=C(O)C1(CN2CC3(Cc4ccc(OCc5ccccc5F)cc4C3)C2)CC1 [Example 140, 1-((5′-((2-fluorobenzyl)oxy)-1′,3′-dihydrospiro[azetidine-3,2′-inden]-1-yl)methyl)cyclopropanecarboxylic acid] |
| 1000 to 10000 | > 1000 | < 1000 | O=C(O)C1(CN2CC3(Cc4ccc(OCc5ccccc5Cl)cc4C3)C2)CC1 [Example 141, 1-((5′-((2-chlorobenzyl)oxy)-1′,3′-dihydrospiro[azetidine-3,2′-inden]-1-yl)methyl)cyclopropanecarboxylic acid] |
| 1000 to 10000 | > 1000 | > 1000 | N#Cc1ccc(COc2ccc3c(c2)CC2(C3)CN(CC3(C(=O)O)CC3)C2)cc1 [Example 142, 1-((5′-((4-cyanobenzyl)oxy)-1′,3′-dihydrospiro[azetidine-3,2′-inden]-1-yl)methyl)cyclopropanecarboxylic acid] |
| 1000 to 10000 | > 1000 | < 1000 | O=C(O)C1(CN2CC3(Cc4ccc(OCc5ccc6c(c5)OCO6)cc4C3)C2)CC1 [Example 143, 1-((5′-(benzo[d][1,3]dioxol-5-ylmethoxy)-1′,3′-dihydrospiro[azetidine-3,2′-inden]-1-yl)methyl)cyclopropanecarboxylic acid] |
| 1000 to 10000 | > 1000 | > 1000 | O=C(O)C1(CN2CC3(Cc4ccc(OCCc5c[nH]c6ccccc56)cc4C3)C2)CC1 [Example 144, 1-((5′-(2-(1H-indol-3-yl)ethoxy)-1′,3′-dihydrospiro[azetidine-3,2′-inden]-1-yl)methyl)cyclopropanecarboxylic acid] |
| 1000 to 10000 | > 1000 | < 1000 | O=C(O)C1(CN2CC3(Cc4ccc(OCCOc5ccccc5Cl)cc4C3)C2)CC1 [Example 145, 1-((5′-(2-(2-chlorophenoxy)ethoxy)-1′,3′-dihydrospiro[azetidine-3,2′-inden]-1-yl)methyl)cyclopropanecarboxylic acid] |
| 1000 to 10000 | > 1000 | > 1000 | Cc1cccc(CCCOc2ccc3c(c2)CC2(C3)CN(CC3(C(=O)O)CC3)C2)n1 [Example 146, 1-((5′-(3-(6-methylpyridin-2-yl)propoxy)-1′,3′-dihydrospiro[azetidine-3,2′-inden]-1-yl)methyl)cyclopropanecarboxylic acid] |
| 100 to 1000 | > 1000 | < 1000 | N#Cc1cccc(COc2ccc3c(c2)CC2(C3)CN(CC3(C(=O)O)CC3)C2)c1 [Example 147, 1-((5′-((3-cyanobenzyl)oxy)-1′,3′-dihydrospiro[azetidine-3,2′-inden]-1-yl)methyl)cyclopropanecarboxylic acid] |
| 1000 to 10000 | > 1000 | < 1000 | O=C(O)C1(CN2CC3(Cc4ccc(OCCc5cccc(F)c5)cc4C3)C2)CC1 [Example 148, 1-((5′-(3-fluorophenethoxy)-1′,3′-dihydrospiro[azetidine-3,2′-inden]-1-yl)methyl)cyclopropanecarboxylic acid] |
